Laboratory results: patent US6576671B1, “Aminotetralin derivatives for the therapy of cardiovascular diseases” (Chiese Farmaceutici S.p.A., priority 1999, dated 2003)

Experiments:
[1] = test system: plasma and tissue esterases; experiment: Transformation into the desesterified form after administration; type: in vivo
[2] = test system: patients with a moderate congestive heart failure (class NYHA II-III); experiment: Randomized double-blind study versus placebo, hemodynamic and neurohumoral parameters; type: in vivo, human
Experimental: In order to investigate the effects of the compound both on the hemodynamic parameters and the neurohumoral pattern, a randomized double-blind study versus placebo was carried out in 18 patients with a moderate congestive heart failure (class NYHA II-III).
Each patient received on 3 consecutive days 2 active doses of CHF 1035 and 1 placebo dose.
The following hemodynamic parameters were evaluated:
pulmonary capillary wedge pressure (PCWP) (mmHg);
cardiac index (CJ) (L/min/m^2);
stroke volume index (SVI) (ml/min/m^2);
systemic vascular resistance (SVR) (dyneseccm^−5);
mean blood pressure (BPm) (mmHg).
The evaluations were carried out by catheterization of the right heart (Swan-Ganz catheter), measuring the hemodynamic parameters of the tested medicament before administration or “pre-dose” (PD) and for the 300 subsequent minutes after the administration or “after-dose” (AD), every 20 minutes for the first 2 hours, then every 60 minutes.
To evaluate the effects of the compound on neurohormones, noradrenaline (NE) (pg/ml) and adrenalin (E) (pg/ml) plasmatic levels were further evaluated, before and 140 minutes after the administration of CHF 1035 and placebo, respectively.

α2-adrenergic receptors = experiment: α2-adrenergic activity in isolated neuronally-stimulated rat vas deferens
anesthetized rats = experiment: In vivo cardiovascular effects in anesthetized rats; design: species or system rat
Experimental: Male albino rats (Sprague Dawley, 350-400 g) were anesthetized by sodium pentobarbital (60 mg/kg) and maintained by i.v. infusion (6 mg/h). The trachea was cannulated to facilitate spontaneous respiration and body temperature was maintained at 37 C. Homoiothermic Blanket Control System (Harvard, England).
The right femoral artery was cannulated for arterial blood pressure measurement and left jugular vein or duodenum were cannulated for drug administration. Mean arterial pressure and heart rate were continuously monitored by pressure transducer and medium gain amplifier triggered by the ECG signal, respectively. […]
CHF 1035 was administered intraduodenally (1 mg/kg).
The response to […] was determined in the absence and in the presence of the selective β2-adrenoceptor antagonist ICI 118.551 (0.2 mg/kg i.v.) and the selective DA2-dopaminergic antagonist domperidone (0 3 mg/kg i.v.) both alone and in combination. The antagonists were administered 10 min before the i.d. drug administration.

[3] = Pharmacological and clinic pharmacological studies of diuresis; conditions: in vivo
α2 adrenergic receptors [4] = experiment: α2 adrenergic receptor binding, [3H]-rauwolscine, rat cerebral cortex; conditions: rat cerebral cortex; read-out: IC50, 50% inhibition of [3H]-rauwolscine specific binding
Experimental: The affinity of CHF 1024 and CHF 1035 for α2, adrenergic receptors was tested on human platelets and on rat cerebral cortex.
(§1) The antagonist [^3H]-rauwolscine was used as marker of the receptor, being its binding reversible, saturable and specific.
Values are expressed as IC50=molar concentration of drug required for 50% inhibition of [^3H]-rauwolscine specific binding.

α2 adrenergic receptors [5] = target: T1, α2 adrenergic receptors (Homo sapiens, UniProt P08913); experiment: α2 adrenergic receptor binding, [3H]-rauwolscine, human platelets; conditions: human platelets; read-out: IC50, 50% inhibition of [3H]-rauwolscine specific binding
T1 construct: from tissue; host or cells: human platelets
T1 sequence (P08913 1-465): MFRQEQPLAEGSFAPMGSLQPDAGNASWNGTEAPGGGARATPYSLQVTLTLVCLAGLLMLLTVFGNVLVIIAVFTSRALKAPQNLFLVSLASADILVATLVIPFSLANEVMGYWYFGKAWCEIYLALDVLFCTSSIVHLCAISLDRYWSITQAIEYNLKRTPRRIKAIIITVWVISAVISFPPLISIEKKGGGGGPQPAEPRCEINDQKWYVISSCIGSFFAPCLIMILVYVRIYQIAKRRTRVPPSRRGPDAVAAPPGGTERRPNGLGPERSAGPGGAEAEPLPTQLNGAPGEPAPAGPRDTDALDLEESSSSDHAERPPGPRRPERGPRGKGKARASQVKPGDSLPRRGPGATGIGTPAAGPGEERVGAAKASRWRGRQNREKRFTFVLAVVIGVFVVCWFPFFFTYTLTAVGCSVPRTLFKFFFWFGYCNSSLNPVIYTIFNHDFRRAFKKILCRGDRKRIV
Description: as §1

[6] = 5 mg, 140 minutes after administration (AD)
[7] = 5 mg, before administration (PD)
[8] = 10 mg, 140 minutes after administration (AD)
[9] = 10 mg, before administration (PD)
[10] = 15 mg, 140 minutes after administration (AD)
[11] = 15 mg, before administration (PD)

Structure (SMILES): CNC1CCc2c(ccc(OC(=O)C(C)C)c2OC(=O)C(C)C)C1 (stereo not drawn) [CHF 1035, 5,6-Diisobutyroyloxy-2-methylaminotetralin]
- transformation by plasma and tissue esterases into the active desesterified form [1]: Immediately after the administration
- reduction in the peripheral vascular resistances ([2]; 5 mg): −15.4%
- adrenalin (E) plasmatic level [2, 6]: 42 pg/mL
- noradrenaline (NE) plasmatic level [2, 6]: 301 pg/mL
- cardiac index (CI) ([2]; 5 mg, after-dose (AD)): 3.4 L/min/m^2
- heart rate (HR) ([2]; 5 mg, after-dose (AD)): 78 bpm
- mean blood pressure (BPm) ([2]; 5 mg, after-dose (AD)): 82 mmHg
- pulmonary capillary wedge pressure (PCWP) ([2]; 5 mg, after-dose (AD)): 18 mmHg
- stroke volume index (SVI) ([2]; 5 mg, after-dose (AD)): 43 ml/min/m^2
- systemic vascular resistance (SVR) ([2]; 5 mg, after-dose (AD)): 1052 dyneseccm^−5
- adrenalin (E) plasmatic level [2, 7]: 56 pg/mL
- noradrenaline (NE) plasmatic level [2, 7]: 299 pg/mL
- cardiac index (CI) ([2]; 5 mg, pre-dose (PD)): 3 L/min/m^2
- heart rate (HR) ([2]; 5 mg, pre-dose (PD)): 74 bpm
- mean blood pressure (BPm) ([2]; 5 mg, pre-dose (PD)): 85 mmHg
- pulmonary capillary wedge pressure (PCWP) ([2]; 5 mg, pre-dose (PD)): 22 mmHg
- systemic vascular resistance (SVR) ([2]; 5 mg, pre-dose (PD)): 1243 dyneseccm^−5
- reduction in the peripheral vascular resistances ([2]; 10 mg): −27.0%
- adrenalin (E) plasmatic level [2, 8]: 62 pg/mL
- noradrenaline (NE) plasmatic level [2, 8]: 244 pg/mL
- cardiac index (CI) ([2]; 10 mg, after-dose (AD)): 3.4 L/min/m^2
- heart rate (HR) ([2]; 10 mg, after-dose (AD)): 76 bpm
- mean blood pressure (BPm) ([2]; 10 mg, after-dose (AD)): 77 mmHg
- pulmonary capillary wedge pressure (PCWP) ([2]; 10 mg, after-dose (AD)): 16 mmHg
- stroke volume index (SVI) ([2]; 10 mg, after-dose (AD)): 45 ml/min/m^2
- systemic vascular resistance (SVR) ([2]; 10 mg, after-dose (AD)): 1009 dyneseccm^−5
- adrenalin (E) plasmatic level [2, 9]: 65 pg/mL
- noradrenaline (NE) plasmatic level [2, 9]: 285 pg/mL
- cardiac index (CI) ([2]; 10 mg, pre-dose (PD)): 2.7 L/min/m^2
- heart rate (HR) ([2]; 10 mg, pre-dose (PD)): 70 bpm
- mean blood pressure (BPm) ([2]; 10 mg, pre-dose (PD)): 85 mmHg
- pulmonary capillary wedge pressure (PCWP) ([2]; 10 mg, pre-dose (PD)): 20 mmHg
- stroke volume index (SVI) ([2]; 10 mg, pre-dose (PD)): 38 ml/min/m^2
- systemic vascular resistance (SVR) ([2]; 10 mg, pre-dose (PD)): 1382 dyneseccm^−5
- reduction in the peripheral vascular resistances ([2]; 15 mg): −35.2%
- adrenalin (E) plasmatic level [2, 10]: 58 pg/mL
- noradrenaline (NE) plasmatic level [2, 10]: 308 pg/mL
- cardiac index (CI) ([2]; 15 mg, after-dose (AD)): 4 L/min/m^2
- heart rate (HR) ([2]; 15 mg, after-dose (AD)): 80 bpm
- mean blood pressure (BPm) ([2]; 15 mg, after-dose (AD)): 79 mmHg
- pulmonary capillary wedge pressure (PCWP) ([2]; 15 mg, after-dose (AD)): 16 mmHg
- stroke volume index (SVI) ([2]; 15 mg, after-dose (AD)): 49 ml/min/m^2
- systemic vascular resistance (SVR) ([2]; 15 mg, after-dose (AD)): 881 dyneseccm^−5
- adrenalin (E) plasmatic level [2, 11]: 53 pg/mL
- noradrenaline (NE) plasmatic level [2, 11]: 340 pg/mL
- cardiac index (CI) ([2]; 15 mg, pre-dose (PD)): 3 L/min/m^2
- heart rate (HR) ([2]; 15 mg, pre-dose (PD)): 74 bpm
- mean blood pressure (BPm) ([2]; 15 mg, pre-dose (PD)): 87 mmHg
- pulmonary capillary wedge pressure (PCWP) ([2]; 15 mg, pre-dose (PD)): 21 mmHg
- stroke volume index (SVI) ([2]; 15 mg, pre-dose (PD)): 40 ml/min/m^2
- systemic vascular resistance (SVR) ([2]; 15 mg, pre-dose (PD)): 1359 dyneseccm^−5
- increase in heart rate ([2]; 5, 10, 15 mg, only a relative increase): not clinically significant
- catecholamines plasmatic levels ([2]; during systemic vasodilation): without inducing any reflected increase
- IC50 (α2-adrenergic receptors; isolated neuronally-stimulated rat vas deferens, read-out: IC50, 50% inhibition of the electrically induced contraction): 71.4 nM
- more potent than dopamine (α2-adrenergic receptors; rat vas deferens): ~70 times
- peak hypotensive effect after pretreatment with the β2-antagonist (anesthetized rats; 1 mg/kg i.d., ICI 118.551 0.2 mg/kg i.v. 10 min before): significantly reduced
- hypotensive response after both antagonists combined (anesthetized rats; 1 mg/kg i.d., ICI 118.551 and domperidone): completely abolished
- time to complete recovery of basal value after DA2-antagonist pretreatment (anesthetized rats; 1 mg/kg i.d., domperidone i.v. 10 min before, hypotensive response significantly shortened): 60 min
- hypotensive response, peak effect, reduction from basal value (anesthetized rats; 1 mg/kg intraduodenal, 5 min after administration): about 45%
- hypotensive response, reduction from basal value (anesthetized rats; 1 mg/kg intraduodenal, 2 hours after administration): about 20%
- blood pressure (anesthetized rats; intraduodenal, 1 mg/kg): markedly reduced
- heart rate (anesthetized rats; intraduodenal, 1 mg/kg): without affecting
- diuresis [3]: increases
- natriuresis and kaliuresis [3]: without affecting
- IC50 (α2 adrenergic receptors [4]): 2650 nM
- IC50 (α2 adrenergic receptors [5]): 27000 nM
